Source: US20180265877A1, “METHODS AND COMPOSITIONS FOR AGROBACTERIUM COMPRISING NEGATIVE SELECTION MARKERS” (PIONEER HI-BRED INTERNATIONAL, INC., priority 2015, published 2018)

Assays:
Format in all cases: cell-based
[1] = test system: Agrobacterium strain AGL0; assay: Agrobacterium growth assay on solid minimal medium, wild-type AGL0; design: key to Growth score: a score of zero (0) indicating no visible colonies; 1+ indicating a few isolated colonies; ++: progressing up to 5+; +++: progressing up to 5+; ++++: progressing up to 5+; +++++: 5+ indicating a confluent lawn
Method: (§1) For all Agrobacterium growth-assay experiments, standard Agrobacterium minimal medium was used, with no additives as a control treatment, or with the addition of either 5-fluorocytosine, 5-fluorouracil or thymidine. To begin these tests, experiments were conducted to test for growth of wild-type and mutant AGL0 Agrobacterium strains on either 5-fluorocytosine (5-fluorocytosine, the non-toxic substrate of the CODA protein) or 5-fluorouracil (5-fluorouracil, the toxic product).
(§2) In Table 4, results of a more detailed kill-curve for strain AGL0 on 5-fluorouracil are shown. […] Finally, a third experiment was performed using either wild-type AGL0 or an auxotrophic mutant of AGL0 in which the gene encoding thymidylate synthase was inactivated, rendering the bacteria incapable of growth in the absence of thymidine (this strain was referred to as AGL0 THY−). The two strains were plated at high densities (10^6 or 10^8 CFU/plate) onto medium containing 0, 1 or 3 μg/ml 5-fluorouracil, with each of these three treatments containing either 0 or 50 mg/l thymidine.
The newly developed AGL0 mutant strain (THY−/codA+, see Example 1) was plated on varying concentrations of 5-fluorocytosine to assess growth. This strain, along with wild-type AGL0 were cultured overnight in liquid medium, diluted to 10^7 CFU and then 100 μl of suspension was plated onto minimal Agro medium+/− thymidine, with either 0, 100, 200 or 300 μg/ml 5-fluorocytosine, for a total of 8 treatments. After 72 hours at 28° C., the plates were scored for Agrobacterium growth.

[2] = test system: Agrobacterium strain EHA105; assay: Agrobacterium growth assay on solid minimal medium, EHA105; design: key: a score of zero (0) indicating no visible colonies; 1+ indicating a few isolated colonies; ++: progressing up to 5+; +++: progressing up to 5+; ++++: progressing up to 5+; +++++: 5+ indicating a confluent lawn; conditions: EHA105 plated at 1 × 10^4, after 3 days
Method: as §1

AGL0 THY− = assay: Agrobacterium growth assay on solid medium, thymidine auxotroph AGL0 THY−; conditions: for Growth score: after 24 hours
Method: as §2

[3] = test system: Agrobacterium strain EHA101; assay: Agrobacterium growth assay on solid minimal medium, EHA101; design: key: a score of zero (0) indicating no visible colonies; 1+ indicating a few isolated colonies; ++: progressing up to 5+; +++: progressing up to 5+; ++++: progressing up to 5+; +++++: 5+ indicating a confluent lawn; conditions: EHA101 plated at 1 x 10^4, after 3 days
Method: as §1

[4] = test system: four Agrobacterium strains (AGL0, LBA4404, EHA101 and EHA105); assay: Agrobacterium growth assay, the four strains
Method: as §1

[5] = test system: Agrobacterium strain LBA4404; assay: Agrobacterium growth assay on solid minimal medium, LBA4404; design: key: a score of zero (0) indicating no visible colonies; 1+ indicating a few isolated colonies; ++: progressing up to 5+; +++: progressing up to 5+; ++++: progressing up to 5+; +++++: 5+ indicating a confluent lawn; conditions: LBA4404 plated at 1 × 10^4, after 3 days
Method: as §1

Question: What does the source list for `O=c1[nH]cc(F)c(=O)[nH]1` [5-fluorouracil]?
Answer: Growth ([1]; 0.3 μg/ml 5-fluorouracil, plating densities 1×10^3 to 1×10^8 CFU/plate): only a few colonies grew; Growth ([1]; 1 μg/ml 5-fluorouracil or higher, all plating densities): completely inhibited; Growth score ([1]; AGL0 1 x 10^6, 5-fluorouracil 1 μg/ml, no thymidine, after 24 hours): 0; Growth score ([1]; AGL0 1 x 10^6, 5-fluorouracil 1 μg/ml, thy 50 mg/l, after 24 hours): 0; Growth score ([1]; AGL0 1 x 10^6, 5-fluorouracil 3 μg/ml, no thymidine, after 24 hours): 0; Growth score ([1]; AGL0 1 x 10^6, 5-fluorouracil 3 μg/ml, thy 50 mg/l, after 24 hours): 0; Growth score ([1]; AGL0 1 x 10^8, 5-fluorouracil 1 μg/ml, no thymidine, after 24 hours): 0; Growth score ([1]; AGL0 1 x 10^8, 5-fluorouracil 1 μg/ml, thy 50 mg/l, after 24 hours): 0; Growth score ([1]; AGL0 1 x 10^8, 5-fluorouracil 3 μg/ml, no thymidine, after 24 hours): 0; Growth score ([1]; AGL0 1 x 10^8, 5-fluorouracil 3 μg/ml, thy 50 mg/l, after 24 hours): 0; Growth score ([1]; AGL0 1 × 10^3 CFU, 0.1 μg/ml 5-fluorouracil, 72 hours): ++; Growth score ([1]; AGL0 1 × 10^3 CFU, 0.3 μg/ml 5-fluorouracil, 72 hours): +; Growth score ([1]; AGL0 1 × 10^3 CFU, 1 μg/ml 5-fluorouracil, 72 hours): 0; Growth score ([1]; AGL0 1 × 10^3 CFU, 3 μg/ml 5-fluorouracil, 72 hours): 0; Growth score ([1]; AGL0 1 × 10^4 CFU, 0.1 μg/ml 5-fluorouracil, 72 hours): ++; Growth score ([1]; AGL0 1 × 10^4 CFU, 0.3 μg/ml 5-fluorouracil, 72 hours): +; Growth score ([1]; AGL0 1 × 10^4 CFU, 1 μg/ml 5-fluorouracil, 72 hours): 0; Growth score ([1]; AGL0 1 × 10^4 CFU, 3 μg/ml 5-fluorouracil, 72 hours): 0; Growth score ([1]; AGL0 1 × 10^5 CFU, 0.1 μg/ml 5-fluorouracil, 72 hours): +++; Growth score ([1]; AGL0 1 × 10^5 CFU, 0.3 μg/ml 5-fluorouracil, 72 hours): +; Growth score ([1]; AGL0 1 × 10^5 CFU, 1 μg/ml 5-fluorouracil, 72 hours): 0; Growth score ([1]; AGL0 1 × 10^5 CFU, 3 μg/ml 5-fluorouracil, 72 hours): 0; Growth score ([1]; AGL0 1 × 10^6 CFU, 0.1 μg/ml 5-fluorouracil, 72 hours): ++; Growth score ([1]; AGL0 1 × 10^6 CFU, 0.3 μg/ml 5-fluorouracil, 72 hours): +; Growth score ([1]; AGL0 1 × 10^6 CFU, 1 μg/ml 5-fluorouracil, 72 hours): 0; Growth score ([1]; AGL0 1 × 10^6 CFU, 3 μg/ml 5-fluorouracil, 72 hours): 0; Growth score ([1]; AGL0 1 × 10^7 CFU, 0.1 μg/ml 5-fluorouracil, 72 hours): ++; Growth score ([1]; AGL0 1 × 10^7 CFU, 0.3 μg/ml 5-fluorouracil, 72 hours): +; Growth score ([1]; AGL0 1 × 10^7 CFU, 1 μg/ml 5-fluorouracil, 72 hours): 0; Growth score ([1]; AGL0 1 × 10^7 CFU, 3 μg/ml 5-fluorouracil, 72 hours): 0; Growth score ([1]; AGL0 1 × 10^8 CFU, 0.1 μg/ml 5-fluorouracil, 72 hours): +++; Growth score ([1]; AGL0 1 × 10^8 CFU, 0.3 μg/ml 5-fluorouracil, 72 hours): +; Growth score ([1]; AGL0 1 × 10^8 CFU, 1 μg/ml 5-fluorouracil, 72 hours): 0; Growth score ([1]; AGL0 1 × 10^8 CFU, 3 μg/ml 5-fluorouracil, 72 hours): 0; Growth score ([1]; AGL0 plated at 1 × 10^4, 0.1 μg/ml 5-fluorouracil, after 3 days): +; Growth score ([1]; AGL0 plated at 1 × 10^4, 1.0 μg/ml 5-fluorouracil, after 3 days): 0; Growth score ([1]; AGL0 plated at 1 × 10^4, 3.0 μg/ml 5-fluorouracil, after 3 days): 0; Growth score ([1]; AGL0 plated at 4 × 10^7, 0.1 μg/ml 5-fluorouracil, after 3 days): ++++; Growth score ([1]; AGL0 plated at 4 × 10^7, 1.0 μg/ml 5-fluorouracil, after 3 days): ++++; Growth score ([1]; AGL0 plated at 4 × 10^7, 3.0 μg/ml 5-fluorouracil, after 3 days): 0; Growth ([1]; wild-type AGL0, 1 and 3 μg/ml 5-fluorouracil, 0 or 50 mg/l thymidine, 24 hours): no growth was observed; Growth score ([2]; 0.1 μg/ml 5-fluorouracil): +; Growth score ([2]; 1.0 μg/ml 5-fluorouracil): 0; Growth score ([2]; 3.0 μg/ml 5-fluorouracil): 0; Growth score (AGL0 THY−; AGL0 THY- 1 x 10^6, 5-fluorouracil 1 μg/ml, no thymidine): 0; Growth score (AGL0 THY−; AGL0 THY- 1 x 10^6, 5-fluorouracil 1 μg/ml, thy 50 mg/l): 0; Growth score (AGL0 THY−; AGL0 THY- 1 x 10^6, 5-fluorouracil 3 μg/ml, no thymidine): 0; Growth score (AGL0 THY−; AGL0 THY- 1 x 10^6, 5-fluorouracil 3 μg/ml, thy 50 mg/l): 0; Growth score (AGL0 THY−; AGL0 THY- 1 x 10^8, 5-fluorouracil 1 μg/ml, no thymidine): 0; Growth score (AGL0 THY−; AGL0 THY- 1 x 10^8, 5-fluorouracil 1 μg/ml, thy 50 mg/l): 0; Growth score (AGL0 THY−; AGL0 THY- 1 x 10^8, 5-fluorouracil 3 μg/ml, no thymidine): 0; Growth score (AGL0 THY−; AGL0 THY- 1 x 10^8, 5-fluorouracil 3 μg/ml, thy 50 mg/l): 0; Growth (AGL0 THY−; THY− AGL0, 1 and 3 μg/ml 5-fluorouracil, 0 or 50 mg/l thymidine, 24 hours): no growth was observed; Growth score ([3]; 0.1 μg/ml 5-fluorouracil): ++; Growth score ([3]; 1.0 μg/ml 5-fluorouracil): 0; Growth score ([3]; 3.0 μg/ml 5-fluorouracil): 0; Growth ([4]; 1 μg/ml 5-fluorouracil, all four strains plated at the lower density (1×10^4 CFU)): no growth; Growth ([4]; 3 μg/ml 5-fluorouracil, any strain): no growth was observed; Totally inhibiting 5-fluorouracil concentration (3 μg/ml) relative to highest 5-fluorocytosine concentration tested (1000 μg/ml) ([4]; fold lower): over 300 fold; Growth score ([5]; 0.1 μg/ml 5-fluorouracil): +++; Growth score ([5]; 1.0 μg/ml 5-fluorouracil): 0; Growth score ([5]; 3.0 μg/ml 5-fluorouracil): 0
